Data published in PubChem BioAssay (NCI).
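Compound exposure: 48 hours, 5 concentrations, 96-well plates. GI50: concentration for 50% inhibition of growth. Definition used: TGI = concentration required for complete inhibition of growth.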

How the values were obtained:
Assay in all cases: NCI tumour cell line growth inhibition, 48 h
EKVX NSCLC = system: EKVX NSCLC
A498 renal = system: A498 renal
TK-10 renal = system: TK-10 renal
UACC-62 melanoma = system: UACC-62 melanoma
K-562 leukemia = system: K-562 leukemia
MDA-MB-231 breast = system: MDA-MB-231 breast
HCC-2998 colon = system: HCC-2998 colon
UACC-257 melanoma = system: UACC-257 melanoma
SK-MEL-2 melanoma = system: SK-MEL-2 melanoma
SF-268 CNS = system: SF-268 CNS

## CC1OC(CC(=O)O)CC2=C1C(=O)c1c(O)cccc1C2=O (stereo not given)
EKVX NSCLC
  TGI: 2.02 µM
A498 renal
  TGI: 2.36 µM
TK-10 renal
  TGI: 1.82 µM
UACC-62 melanoma
  TGI: 0.268 µM
K-562 leukemia
  TGI: 0.36 µM
MDA-MB-231 breast
  TGI: 0.707 µM
HCC-2998 colon
  TGI: 1.69 µM
UACC-257 melanoma
  TGI: 0.228 µM
SK-MEL-2 melanoma
  TGI: 1.14 µM
SF-268 CNS
  TGI: 1.33 µM

## CN(CCCCCl)P(=O)(OCc1ccc([N+](=O)[O-])o1)OCC1OC(n2cnc([N+](=O)[O-])c2N)C(O)C1O (stereo not given)
EKVX NSCLC
  GI50: > 100 µM
  TGI: > 100 µM
A498 renal
  GI50: > 100 µM
  TGI: > 100 µM
TK-10 renal
  GI50: > 100 µM
  TGI: > 100 µM
UACC-62 melanoma
  GI50: > 100 µM
  TGI: > 100 µM
K-562 leukemia
  GI50: > 100 µM
  TGI: > 100 µM
MDA-MB-231 breast
  GI50: > 100 µM
  TGI: > 100 µM
HCC-2998 colon
  GI50: > 100 µM
  TGI: > 100 µM
UACC-257 melanoma
  GI50: > 100 µM
  TGI: > 100 µM
SK-MEL-2 melanoma
  GI50: > 100 µM
  TGI: > 100 µM
SF-268 CNS
  GI50: > 100 µM
  TGI: > 100 µM

## Cc1ccc(C2NC(=O)c3ccccc3N2)c(C)c1 (stereo not given)
EKVX NSCLC
  TGI: > 100 µM
A498 renal
  TGI: 34.9 µM
TK-10 renal
  TGI: > 100 µM
UACC-62 melanoma
  TGI: > 100 µM
K-562 leukemia
  TGI: 8.37 µM
MDA-MB-231 breast
  TGI: > 100 µM
HCC-2998 colon
  TGI: > 61.1 µM
UACC-257 melanoma
  TGI: > 100 µM
SK-MEL-2 melanoma
  TGI: 37.8 µM
SF-268 CNS
  TGI: > 100 µM

## CN(C)c1cccc(F)c1C(=O)NC(=O)Nc1ccc(Cl)cc1
EKVX NSCLC
  TGI: > 100 µM
A498 renal
  TGI: > 74.8 µM
TK-10 renal
  TGI: > 100 µM
UACC-62 melanoma
  TGI: > 100 µM
K-562 leukemia
  TGI: > 34.4 µM
MDA-MB-231 breast
  TGI: > 72.1 µM
HCC-2998 colon
  TGI: 28.3 µM
UACC-257 melanoma
  TGI: > 100 µM
SK-MEL-2 melanoma
  TGI: > 67.9 µM
SF-268 CNS
  TGI: > 100 µM

## COCCOCCOCc1n(Cc2ccc3ccccc3n2)c2ccccc2[n+]1Cc1ccc2ccccc2n1
EKVX NSCLC
  GI50: 2.55 µM
  TGI: 24.4 µM
A498 renal
  GI50: 2.48 µM
  TGI: 7.74 µM
TK-10 renal
  GI50: 4.02 µM
  TGI: 16.2 µM
UACC-62 melanoma
  GI50: 0.424 µM
  TGI: 10.2 µM
K-562 leukemia
  GI50: 0.421 µM
  TGI: 13.2 µM
MDA-MB-231 breast
  GI50: 1.02 µM
  TGI: 9.58 µM
HCC-2998 colon
  GI50: 0.912 µM
  TGI: 14.4 µM
UACC-257 melanoma
  GI50: 0.277 µM
  TGI: 3.73 µM
SK-MEL-2 melanoma
  GI50: 0.447 µM
  TGI: 2.39 µM
SF-268 CNS
  GI50: 0.903 µM
  TGI: 16.2 µM

## O=[N+]([O-])c1cc2no[n+]([O-])c2cc1N1CCCCC1
EKVX NSCLC
  TGI: 8.98 µM
A498 renal
  TGI: 35.2 µM
TK-10 renal
  TGI: 9.08 µM
UACC-62 melanoma
  TGI: 33.8 µM
K-562 leukemia
  TGI: 7.98 µM
MDA-MB-231 breast
  TGI: 44.3 µM
HCC-2998 colon
  TGI: 33.1 µM
UACC-257 melanoma
  TGI: > 36.1 µM
SK-MEL-2 melanoma
  TGI: 30.5 µM
SF-268 CNS
  TGI: 41.2 µM

## CC(C)(C)N/N=C(\C(=O)NC1=C(Cl)C(=O)c2ccccc2C1=O)C1C=CCS1(=O)=O (stereo not given)
EKVX NSCLC
  TGI: 30.2 µM
A498 renal
  TGI: 36.7 µM
TK-10 renal
  TGI: > 100 µM
UACC-62 melanoma
  TGI: 9.17 µM
K-562 leukemia
  TGI: > 100 µM
MDA-MB-231 breast
  TGI: 32.4 µM
HCC-2998 colon
  TGI: 57.3 µM
UACC-257 melanoma
  TGI: 26.5 µM
SK-MEL-2 melanoma
  TGI: 24.9 µM
SF-268 CNS
  TGI: > 100 µM
